Measured values: patent US8546406B2, “Heterocyclic compounds as metap-2 inhibitors” (Merck Patent GmbH, priority 2009, dated 2013)

Molecular target: MetAP-2 (Homo sapiens, UniProt P50579)
Experiment: MetAP-2 activity measurement (coupled enzymatic reactions, substrate Met-Arg-Ser, photometric at 450 nm)
Assay type: biochemical
Settings: Inhibition of MetAP-2; read-out: IC50 enzyme
Description: The MetAP-2 activity is determined by coupling enzymatic reactions. The tripeptide Met-Arg-Ser (MAS) is employed as substrate. The methionine liberated is firstly converted into Metox and H2O2 by L-aminooxidase (AAO). In the second step, the peroxidase (POD) with the aid of the H2O2 catalyses the oxidation of the leukodye dianisidine to dianisidineox, the increase of which is detected photometrically at 450 nm.
MetAP-2 activity can be recorded continuously as kinetics. The reaction scheme illustrates that one mol of dianisidineox is formed per mol of methionene. The MetAP-2 enzyme activity can therefore be calculated directly as Δ absorption per time unit. Qualification of the MetAP-2 activity (mol of Met/time unit) is possible with the aid of the dianisidineox extinction coefficient. The change in extinction per time unit is depicted graphically and a slope calculation is carried out in the visually linear region of the reaction.

Sequence of MetAP-2 (P50579 whole entry, species assumed): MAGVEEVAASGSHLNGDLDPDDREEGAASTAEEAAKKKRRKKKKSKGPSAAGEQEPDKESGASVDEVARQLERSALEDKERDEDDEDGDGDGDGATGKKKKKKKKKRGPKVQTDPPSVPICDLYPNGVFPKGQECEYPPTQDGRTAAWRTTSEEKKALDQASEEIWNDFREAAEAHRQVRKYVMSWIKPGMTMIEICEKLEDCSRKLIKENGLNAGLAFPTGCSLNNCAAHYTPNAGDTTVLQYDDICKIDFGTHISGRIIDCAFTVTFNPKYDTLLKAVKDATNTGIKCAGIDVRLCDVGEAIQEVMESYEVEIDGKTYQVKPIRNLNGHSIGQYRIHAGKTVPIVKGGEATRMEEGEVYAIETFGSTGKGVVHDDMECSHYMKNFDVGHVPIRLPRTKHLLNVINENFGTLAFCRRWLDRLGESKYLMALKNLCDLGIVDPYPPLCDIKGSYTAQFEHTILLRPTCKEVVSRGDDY

Row | SMILES | IC50 [nM]
1 | O=C(OC[C@H]1CCCN1c1ccnc2ncnn12)c1cccc(I)c1 [Compound A45] | 10 to 1000
2 | CC(C)(C)OC(=O)N[C@H](CC(N)=O)C(=O)N1CCc2cccc(OC[C@H]3CCCN3c3ccnc4ncnn34)c2C1 [Compound A29] | 10 to 1000
3 | Brc1cccc(COC[C@H]2CCCN2c2ccnc3ncnn23)c1 [Compound A66, 7-[(R)-2-(3-Bromobenzyloxymethyl)pyrrolidin-1-yl]-[1,2,4]triazolo[1,5-a]pyrimidine] | 10 to 1000
4 | O=C(OC[C@H]1CCCN1c1ccnc2ncnn12)c1ccc(Oc2ccccc2)nc1 [Compound A64] | 10 to 1000
5 | c1ccc2c(OC[C@H]3CCCN3c3ccnc4nsnc34)cccc2c1 [Compound A47] | > 10000
6 | c1cc(COC[C@H]2CCCN2c2ccnc3ncnn23)ccn1 [Compound A58] | > 10000
7 | O=C(OC[C@H]1CCCN1c1ccnc2ncnn12)c1cccc(OC(F)(F)F)c1 [Compound A82, (R)-1-[1,2,4]Triazolo[1,5-a]pyrimidin-7-yl-pyrrolidin-2-ylmethyl 3-trifluoromethoxy-benzoate] | 10 to 1000
8 | NC(=O)CCCC(=O)N1CCc2cccc(OC[C@H]3CCCN3c3ccnc4ncnn34)c2C1 [Compound A53] | 10 to 1000
9 | O=C(OC[C@H]1CCCN1c1ccnc2ncnn12)c1ccccc1I [Compound A68, (R)-1-[1,2,4]Triazolo[1,5-a]pyrimidin-7-yl-pyrrolidin-2-ylmethyl 2-iodobenzoate] | 10 to 1000
10 | CCNC(=O)c1cc(OC[C@H]2CCCN2c2ccnc3ncnn23)c2ccccc2n1 [Compound A13] | 10 to 1000
11 | O=C(NCCc1c[nH]c2ccccc12)c1cc(OC[C@H]2CCCN2c2ccnc3ncnn23)c2ccccc2n1 [Compound A23] | 10 to 1000
12 | N#CCCCCOC(=O)N1CCc2cccc(OC[C@H]3CCCN3c3ccnc4ncnn34)c2C1 [Compound A40] | 10 to 1000
13 | COC(=O)c1ccc2[nH]c(CC3CCCN3c3ccnc4ncnn34)cc2c1 (centres unmarked) [Compound A81] | 10 to 1000
14 | COc1cccc(COC[C@H]2CCCN2c2ccnc3ncnn23)c1 [Compound A51] | 10 to 1000
15 | O=C(OC[C@H]1CCCN1c1ccnc2ncnn12)c1cccc(Br)c1 [Compound A44] | 10 to 1000
16 | c1ccc2c(OC[C@H]3CCCN3c3ccnc4ncnn34)ccc(CNCCCN3CCOCC3)c2c1 [Compound A21] | 10 to 1000
17 | FC(F)(F)c1ccc2nccc(OC[C@H]3CCCN3c3ccnc4ncnn34)c2c1 [Compound A10] | 10 to 1000
18 | O=C(OC[C@H]1CCCN1c1ccnc2ncnn12)c1cccc(C(F)(F)F)c1 [Compound A60] | > 10000
19 | CCOc1cccc(C(=O)OC[C@H]2CCCN2c2ccnc3ncnn23)c1 [Compound A72, (R)-1-[1,2,4]Triazolo[1,5-a]pyrimidin-7-yl-pyrrolidin-2-ylmethyl 3-ethoxybenzoate] | 10 to 1000
20 | c1ccc2c(OC[C@H]3CCCN3c3ccnc4ncnn34)ccc(CNCCN3CCOCC3)c2c1 [Compound A20] | 10 to 1000
21 | NC(=O)C[C@@H](N)C(=O)N1CCc2cccc(OC[C@H]3CCCN3c3ccnc4ncnn34)c2C1 [Compound A36] | 10 to 1000
22 | O=C(c1ccno1)N1CCc2cccc(OC[C@H]3CCCN3c3ccnc4ncnn34)c2C1 [Compound A34] | 10 to 1000
23 | Clc1cc(COC[C@H]2CCCN2c2ccnc3ncnn23)cc(Cl)n1 [Compound A65] | > 10000

Row | SMILES | IC50 [nM]
24 | O=C(OC[C@H]1CCCN1c1ccnc2ncnn12)c1ccccc1 [Compound A71, (R)-1-[1,2,4]Triazolo[1,5-a]pyrimidin-7-yl-pyrrolidin-2-ylmethyl benzoate] | 10 to 1000
25 | FC(F)(F)Oc1ccc2nccc(OC[C@H]3CCCN3c3ccnc4ncnn34)c2c1 [Compound A9] | 10 to 1000
26 | FC(F)(F)c1cccc(COC[C@H]2CCCN2c2ccnc3ncnn23)c1 [Compound A48] | 1000 to 10000
27 | COc1cccc(C(=O)OC[C@H]2CCCN2c2ccnc3ncnn23)c1 [Compound A43] | 10 to 1000
28 | Ic1cccc(COC[C@H]2CCCN2c2ccnc3ncnn23)c1 [Compound A49] | 1000 to 10000
29 | O=C(NCc1ccccc1)c1cc(OC[C@H]2CCCN2c2ccnc3ncnn23)c2ccccc2n1 [Compound A22] | 10 to 1000
30 | O=C(NCc1ccc(F)cc1)c1cc(OC[C@H]2CCCN2c2ccnc3ncnn23)c2ccccc2n1 [Compound A11] | 10 to 1000
31 | NCCCOC(=O)N1CCc2cccc(OC[C@H]3CCCN3c3ccnc4ncnn34)c2C1 [Compound A75] | 10 to 1000
32 | NCCCCN1CCc2cccc(OC[C@H]3CCCN3c3ccnc4ncnn34)c2C1 [Compound A41] | 10 to 1000
33 | O=C(OC[C@H]1CCCN1c1ccnc2ncnn12)c1cccnc1Oc1ccccc1 [Compound A62] | 10 to 1000
34 | O=S(=O)(NC[C@H]1CCCN1c1ccnc2ncnn12)c1ccc(F)cc1 [Compound A84] | 1000 to 10000
35 | NS(=O)(=O)c1ccc(CCNC(=O)c2cc(OC[C@H]3CCCN3c3ccnc4ncnn34)c3ccccc3n2)cc1 [Compound A24] | 10 to 1000
36 | c1ccc2c(OC[C@H]3CCCN3c3ccnc4ncnn34)ccnc2c1 [Compound A8] | 10 to 1000
37 | O=C(NCCCN1CCCC1=O)c1cc(OC[C@H]2CCCN2c2ccnc3ncnn23)c2ccccc2n1 [Compound A18] | 10 to 1000
38 | NCC(=O)N1CCc2cccc(OC[C@H]3CCCN3c3ccnc4ncnn34)c2C1 [Compound A37] | 10 to 1000
39 | O=C(OC[C@H]1CCCN1c1ccnc2ncnn12)c1cccc(F)c1 [Compound A52] | 10 to 1000
40 | CN(C)c1cccc(C(=O)OC[C@H]2CCCN2c2ccnc3ncnn23)c1 [Compound A50] | 10 to 1000
41 | CC(C)(C)OC(=O)NCCCCN1CCc2cccc(OC[C@H]3CCCN3c3ccnc4ncnn34)c2C1 [Compound A35] | 10 to 1000
42 | O=C1c2ccccc2C(=O)N1C[C@H]1CCCN1c1ccnc2ncnn12 [Compound A78] | 1000 to 10000
43 | c1ccc2c(OC[C@H]3CCCN3c3ccnc4nncn34)cccc2c1 [Compound A4, 5-[(R)-2-(naphthalen-1-yloxymethyl)pyrrolidin-1-yl]-[1,2,4]-triazolo[4,3-a]pyrimidine] | > 10000
44 | OC[C@H]1CCCN1c1ccnc2ncnn12 [Compound A83] | 10 to 1000
45 | O=C(OC[C@H]1CCCN1c1ccnc2ncnn12)c1cccnc1 [Compound A70] | 10 to 1000
46 | FC(F)(F)Oc1cccc(COC[C@H]2CCCN2c2ccnc3ncnn23)c1 [Compound A67, 7-[(R)-2-(3-Trifluoromethoxybenzyloxymethyl)-pyrrolidin-1-yl]-[1,2,4]triazolo[1,5-a]pyrimidine] | 10 to 1000

Row | SMILES | IC50 [nM]
47 | O=C(OC[C@H]1CCCN1c1ccnc2ncnn12)c1cc(Cl)ccc1F [Compound A73, (R)-1-[1,2,4]Triazolo[1,5-a]pyrimidin-7-yl-pyrrolidin-2-ylmethyl 5-chloro-2-fluorobenzoate] | 10 to 1000
48 | N#CCCCCN1CCc2cccc(OC[C@H]3CCCN3c3ccnc4ncnn34)c2C1 [Compound A38] | 10 to 1000
49 | O=C(NCCc1ccc(F)cc1)c1cc(OC[C@H]2CCCN2c2ccnc3ncnn23)c2ccccc2n1 [Compound A12] | 10 to 1000
50 | NCCCN1CCc2cccc(OC[C@H]3CCCN3c3ccnc4ncnn34)c2C1 [Compound A76] | 10 to 1000
51 | O=C(OC[C@H]1CCCN1c1ccnc2ncnn12)c1ccc(Cl)nc1 [Compound A61] | 10 to 1000
52 | O=C(OC[C@H]1CCCN1c1ccnc2ncnn12)c1cccc(CCl)c1 [Compound A74, (R)-1-[1,2,4]Triazolo[1,5-a]pyrimidin-7-yl-pyrrolidin-2-ylmethyl 3-chloromethylbenzoate] | 10 to 1000
53 | Fc1cccc(COC[C@H]2CCCN2c2ccnc3ncnn23)c1 [Compound A55] | 10 to 1000
54 | CCOC(=O)c1n[nH]c(C)c1OC[C@H]1CCCN1c1ccnc2ncnn12 [Compound A19] | 10 to 1000
55 | O=C(OC[C@H]1CCCN1c1ccnc2ncnn12)c1ccccn1 [Compound A69, (R)-1-[1,2,4]Triazolo[1,5-a]pyrimidin-7-yl-pyrrolidin-2-ylmethyl pyridine-2-carboxylate] | 10 to 1000
56 | Nc1nc2nccc(N3CCC[C@@H]3COc3cccc4ccccc34)n2n1 [Compound A80] | 1000 to 10000
57 | CC(=O)N1CCc2cccc(OC[C@H]3CCCN3c3ccnc4ncnn34)c2C1 [Compound A33] | 10 to 1000
58 | CC(C)(C)OC(=O)NCC(=O)N1CCc2cccc(OC[C@H]3CCCN3c3ccnc4ncnn34)c2C1 [Compound A31] | 10 to 1000
59 | c1cc(OC[C@H]2CCCN2c2ccnc3ncnn23)c2ccncc2c1 [Compound A17] | 10 to 1000
60 | CC(C)(C)OC(=O)N1CCc2cccc(OC[C@H]3CCCN3c3ccnc4ncnn34)c2C1 [Compound A25] | 1000 to 10000
61 | O=C(OC[C@H]1CCCN1c1ccnc2ncnn12)c1cc(Cl)nc2ccccc12 [Compound A46] | 10 to 1000
62 | CC(C)(C)OC(=O)N[C@H](CC#N)C(=O)N1CCc2cccc(OC[C@H]3CCCN3c3ccnc4ncnn34)c2C1 [Compound A39] | 10 to 1000
63 | c1cc2c(c(OC[C@H]3CCCN3c3ccnc4ncnn34)c1)CNCC2 [Compound A27] | 10 to 1000
64 | c1cncc(COC[C@H]2CCCN2c2ccnc3ncnn23)c1 [Compound A56] | 1000 to 10000
65 | COC(=O)c1ccc2[nH]c(COC[C@H]3CCCN3c3ccnc4ncnn34)cc2c1 [Compound A59] | 10 to 1000
66 | N#Cc1cccc(C(=O)OC[C@H]2CCCN2c2ccnc3ncnn23)c1 [Compound A79, (R)-1-[1,2,4]Triazolo[1,5-a]pyrimidin-7-yl-pyrrolidin-2-ylmethyl 3-cyanobenzoate] | 10 to 1000
67 | NCCCCOC(=O)N1CCc2cccc(OC[C@H]3CCCN3c3ccnc4ncnn34)c2C1 [Compound A42] | 10 to 1000
68 | O=C(OC[C@H]1CCCN1c1ccnc2ncnn12)c1ccc(F)cc1 [Compound A26] | 10 to 1000
